Experimental data reported in ChEMBL document CHEMBL3872241, “Synthesis and bioactivity evaluation of 2,3-diaryl acrylonitrile derivatives as potential anticancer agents” (Bioorg Med Chem Lett, 2017).

Assays:
[1] = Cytotoxicity against human HCT116 cells assessed as cell growth inhibition after 48 hrs by MTT assay; assay type: functional, cell-based; conditions: HCT-116, 48 h
[2] = Cytotoxicity against human HeLa cells assessed as cell growth inhibition after 48 hrs by MTT assay; assay type: functional, cell-based
[3] = Cytotoxicity against human Bel7402 cells assessed as cell growth inhibition after 48 hrs by MTT assay; assay type: functional, cell-based; conditions: Bel-7402, 48 h
[4] = Cytotoxicity against human L02 cells assessed as cell growth inhibition after 48 hrs by MTT assay; assay type: toxicity, cell-based
[5] = Cytotoxicity against human HCT116 cells assessed as cell growth inhibition at 100 uM after 48 hrs by MTT assay; assay type: functional; conditions: HCT-116, 48 h, read-out: GI
[6] = Cytotoxicity against human HeLa cells assessed as cell growth inhibition at 100 uM after 48 hrs by MTT assay; assay type: functional; conditions: read-out: GI
[7] = Cytotoxicity against human Bel7402 cells assessed as cell growth inhibition at 100 uM after 48 hrs by MTT assay; assay type: functional; conditions: Bel-7402, 48 h, read-out: GI
[8] = Cytotoxicity against human L02 cells assessed as cell growth inhibition at 100 uM after 48 hrs by MTT assay; assay type: toxicity, cell-based; conditions: read-out: GI
HCT-116 = test: Selectivity index, ratio of IC50 for human L02 cells to IC50 for human HCT116 cells; assay type: functional
Bel-7402 = test: Selectivity index, ratio of IC50 for human L02 cells to IC50 for human Bel7402 cells; assay type: functional

| Compound | IC50 [1] | IC50 [2] | IC50 [3] | IC50 at 48 h [4] | inhibition of growth at 100 µM [5] | inhibition of growth at 100 µM [6] | inhibition of growth at 100 µM [7] | inhibition at 48 h, 100 µM [8] | Ratio IC50 (HCT-116) | Ratio IC50 (Bel-7402) |
| --- | --- | --- | --- | --- | --- | --- | --- | --- | --- | --- |
| COc1cc(OC)cc(/C(C#N)=C/c2c(C)cc(C)cc2C)c1 | > 100 µM | > 100 µM | > 100 µM | > 100 µM | 28.9% | 2.7% | 13.4% | 28.1% |  |  |
| COc1cc(OC)cc(/C(C#N)=C/c2ccccc2Cl)c1 | 8.64 µM | 28.2 µM | 28.5 µM | > 100 µM |  |  |  | 11.8% | >11.57 | >3.51 |
| COc1cc(OC)cc(/C(C#N)=C/c2ccc(N(C)C)cc2)c1 | 0.59 µM | > 100 µM | 1.74 µM | > 100 µM |  | 44.4% |  | 26.8% | >169.49 | >57.47 |
| COc1cc(OC)cc(/C(C#N)=C/c2ccc(C(F)(F)F)cc2)c1 | 21.8 µM | > 100 µM | 27.6 µM | > 100 µM |  | 48.2% |  | 22.9% | >4.58 | >3.62 |
| COc1cc(OC)cc(/C(C#N)=C/c2ccc(F)cc2)c1 | > 100 µM | > 100 µM | > 100 µM | > 100 µM | 27.8% | 45.8% | 9.3% | 2.5% |  |  |
| COc1cc(OC)cc(/C(C#N)=C/c2ccccc2F)c1 | 12.2 µM | > 100 µM | 72.6 µM | > 100 µM |  | 44.4% |  | 34.6% | >8.19 | >1.38 |
| CCCOc1ccccc1/C=C(\C#N)c1cc(OC)cc(OC)c1 | > 100 µM | > 100 µM | > 100 µM | > 100 µM | 27.7% |  | 4.9% | 6.4% |  |  |
| COc1cc(OC)cc(/C(C#N)=C/c2ccccc2)c1 | > 100 µM | > 100 µM | > 100 µM | > 100 µM | 27.1% | 28% | 34.8% | 36.4% |  |  |
| COc1cc(OC)cc(/C(C#N)=C/c2c(F)cccc2Cl)c1 | > 100 µM | > 100 µM | > 100 µM | > 100 µM | 32.9% | 35.9% | 11.1% | 41.8% |  |  |
| CCCCOc1ccc(/C=C(\C#N)c2cc(OC)cc(OC)c2)cc1 | > 100 µM | > 100 µM | > 100 µM | > 100 µM | 45% | 18.6% | 15.4% | 35.7% |  |  |
| COc1cc(OC)cc(/C(C#N)=C/c2ccccc2C(F)(F)F)c1 | > 100 µM | > 100 µM | > 100 µM | > 100 µM | 26.6% | 4.9% | 11.4% | 33.6% |  |  |
| COc1cc(OC)cc(/C(C#N)=C/c2cccc(C(F)(F)F)c2)c1 | > 100 µM | > 100 µM | > 100 µM | > 100 µM | 28.7% | 18.3% | 20% | 29.4% |  |  |
| COc1cc(OC)cc(/C(C#N)=C/c2cccs2)c1 | 31.6 µM | > 100 µM | 36.7 µM | > 100 µM |  | 42.2% |  | 41.7% | >3.16 | >2.73 |
| COc1cc(OC)cc(/C(C#N)=C/c2cccc(F)c2)c1 | 38 µM | > 100 µM | 61.3 µM | 96 µM |  | 41.7% |  | 96% | >2.63 | >1.63 |
| COc1cc(OC)cc(/C(C#N)=C/c2ccccn2)c1 | 5.15 µM | 56 µM | 80.5 µM | 75.5 µM |  |  |  |  | 14.66 | 0.94 |
| COc1cc(OC)cc(/C(C#N)=C/c2ccco2)c1 | 3.31 µM | 112 µM | 75.7 µM | > 100 µM |  |  |  | 38.5% | >30.21 | >1.32 |
| COc1cc(OC)cc(/C(C#N)=C/c2ccc(C)cc2)c1 | 2 µM | > 100 µM | 0.59 µM | > 100 µM |  | 38.6% |  | 23.1% | >50 | >169.49 |
| COc1cc(OC)cc(/C(C#N)=C/c2ccc(OCc3ccccc3)cc2)c1 | > 100 µM | > 100 µM | > 100 µM | > 100 µM | 18.7% | 20.7% | 18.6% | 32.7% |  |  |
| COc1cc(OC)cc(/C(C#N)=C/c2ccc(Cl)cc2)c1 | 43.3 µM | 15.9 µM | 8.04 µM | > 100 µM |  |  |  | 33.6% | >2.31 | >12.43 |
| COc1cc(OC)cc(/C(C#N)=C/c2ccccc2Br)c1 | 8.44 µM | > 100 µM | > 100 µM | > 100 µM |  | 37.2% | 17.4% | 8.2% | >11.84 |  |
| COc1cc(OC)cc(/C(C#N)=C/c2cccc3ccccc23)c1 | 20.4 µM | > 100 µM | 26.4 µM | 73.6 µM |  | 44.9% |  |  | 3.59 | 2.78 |
| CCc1ccc(/C=C(\C#N)c2cc(OC)cc(OC)c2)cc1 | 1.3 µM | > 100 µM | 0.35 µM | > 100 µM |  | 40.6% |  | 32.8% | >76.92 | >285.71 |
| COc1cc(OC)cc(/C(C#N)=C/c2ccc(OCC(C)C)cc2)c1 | > 100 µM | > 100 µM | > 100 µM | > 100 µM | 32.3% | 22.4% | 7.6% | 13.6% |  |  |
| COc1cc(OC)cc(/C(C#N)=C/c2cc(OC)c(OC)c(OC)c2)c1 | > 100 µM | > 100 µM | > 100 µM | > 100 µM | 24.1% | 24.9% | 22.3% | 11.6% |  |  |
| CCCOc1ccc(/C=C(\C#N)c2cc(OC)cc(OC)c2)cc1 | 14.2 µM | > 100 µM | 42 µM | > 100 µM |  | 27.6% |  | 34.4% | >7.06 | >2.38 |
